Consider 25 compounds from patent US20240025906A1 (NEURON23, INC., priority 2022, published 2024).

For one test, the target named is T1, TYK2 JH2 (Homo sapiens, UniProt P29597).
T1 construct: purchased DiscoverX (KINOMEscan KdELECT service); host or cells: E. coli BL21-derived (T7 phage display) or HEK-293
In words: TYK2 JH2 binding assay (KINOMEscan KdELECT competitive binding). Conditions: TYK2 JH2 domain, DiscoverX KINOMEscan KdELECT (Assay A); read-out: Biochemical TYK2_DiscoverX_JH2_BND_Kd. Put shortly:
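The assay measures displacement of DNA- or phage-tagged TYK2 pseudokinase domain from an affinity resin; compound binding lowers the amount captured, read by qPCR. Incubation lasts 1 h at room temperature.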

The subject of test [1] is JAK1/TYK2 pSTAT5 (Tyr694/699) in THP-1 cell line. As to the kind of experiment: IFNa-stimulated JAK1/TYK2 pSTAT5 (Tyr694/699) inhibition cellular assay, AlphaLISA. It counts as cell-based. Particulars: Homo sapiens; THP-1 cells, IFNa-stimulated, AlphaLISA (Assay B); read-out: Cellular_THP1_IFNa-pSTATS_TYK2. Put shortly:
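An eight-point 6-fold titration of compound (0.04–10000 nM final) is given to THP-1 cells for 1 h before 30 min of IFNa exposure. Phospho-STAT5 is read by AlphaLISA at 615 nm. IC50 values are derived by logistic regression with bottom set to 0 and Hill slope set to −1.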
For orientation: In Alpha technology, singlet oxygen from a donor bead excites a nearby acceptor bead.

The structures appear in SMILES notation.

T1 sequence (P29597 589-875 limits assumed): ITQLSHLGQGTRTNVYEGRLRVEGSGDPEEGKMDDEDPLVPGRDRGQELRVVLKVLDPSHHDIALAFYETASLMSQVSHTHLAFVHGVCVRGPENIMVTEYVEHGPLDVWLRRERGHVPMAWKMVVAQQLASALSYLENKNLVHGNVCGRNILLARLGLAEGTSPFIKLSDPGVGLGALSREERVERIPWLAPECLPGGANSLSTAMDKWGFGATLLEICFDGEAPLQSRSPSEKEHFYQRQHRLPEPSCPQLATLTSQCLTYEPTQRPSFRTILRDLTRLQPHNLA

Regarding `CNc1ncc(-c2nc3cc(N4CCO[C@@H](C)C4)ccc3o2)c2cc(NC(=O)[C@H]3C[C@H]3C)ncc12` [Example 408, (1S,2R)-2-methyl-N-(8-(methylamino)-5-(5-((S)-2-methylmorpholino)benzo[d]oxazol-2-yl)-2,7-naphthyridin-3-yl)cyclopropane-1-carboxamide], the Kd on TYK2 JH2 is ≤ 100 nM. Also, the IC50 in test [1] was ≤ 500 nM.

For the compound `CNc1ncc(-c2nc3cc(N4CCO[C@@H](C)C4)ccc3o2)c2cc(NC(=O)C3(C)CC3)ncc12` [Example 409, (S)-1-methyl-N-(8-(methylamino)-5-(5-(2-methylmorpholino)benzo[d]oxazol-2-yl)-2,7-naphthyridin-3-yl)cyclopropane-4-carboxamide], the Kd on TYK2 JH2 is ≤ 100 nM. Moreover, in test [1], the IC50 is ≤ 500 nM.

For the compound `CNc1ncc(-c2nc3cc(N4CCO[C@@H](C)C4)ccc3o2)c2cc(Nc3ccn(C)n3)ncc12` [Example 417, (S)—N^1-methyl-N^6-(1-methyl-1H-pyrazol-3-yl)-4-(5-(2-methylmorpholino)benzo[d]oxazol-2-yl)-2,7-naphthyridine-1,6-diamine], the Kd on TYK2 JH2 was ≤ 100 nM. For the same compound, in test [1], the IC50 was ≤ 500 nM.

For `CNc1ncc(-c2nc3cc(N4CCO[C@H](C)C4)ccc3o2)c2cc(NC(=O)[C@@H]3C[C@@H]3F)ncc12` [Example 418, (1S,2S)-2-fluoro-N-(8-(methylamino)-5-(5-((R)-2-methylmorpholino)benzo[d]oxazol-2-yl)-2,7-naphthyridin-3-yl)cyclopropane-1-carboxamide], the Kd at TYK2 JH2 was ≤ 100 nM. Also, the IC50 in test [1] was ≤ 500 nM.

As for `CNc1ncc(-c2nc3cc(N4CCO[C@H](C)C4)ccc3o2)c2cc(NC(=O)[C@H]3C[C@H]3C)ncc12` [Example 419, (1S,2R)-2-methyl-N-(8-(methylamino)-5-(5-((R)-2-methylmorpholino)benzo[d]oxazol-2-yl)-2,7-naphthyridin-3-yl)cyclopropane-1-carboxamide], the Kd on TYK2 JH2 is ≤ 100 nM. Further, in test [1], the IC50 is ≤ 500 nM.

As for `CNc1ncc(-c2nc3cc(N4CCO[C@H](C)C4)ccc3o2)c2cc(Nc3ccccn3)ncc12` [Example 420, (R)—N^1-methyl-4-(5-(2-methylmorpholino)benzo[d]oxazol-2-yl)-N^6-(pyridin-2-yl)-2,7-naphthyridine-1,6-diamine], at TYK2 JH2, the Kd is ≤ 100 nM. Further, the IC50 in test [1] is ≤ 500 nM.

Regarding `CNc1ncc(-c2nc3cc(N4CCOCC4)ccc3o2)c2cc(NC(=O)[C@@H]3CC3(F)F)ncc12` [Example 421, (S)-2,2-difluoro-N-(8-(methylamino)-5-(5-morpholinobenzo[d]oxazol-2-yl)-2,7-naphthyridin-3-yl)cyclopropane-1-carboxamide], the Kd at TYK2 JH2 is ≤ 100 nM. Moreover, in test [1], the IC50 was ≤ 500 nM.

For the compound `CNc1ncc(-c2nc3cc(N4CCOCC4)ccc3o2)c2cc(NC(=O)[C@H]3CC3(F)F)ncc12` [Example 422, (R)-2,2-difluoro-N-(8-(methylamino)-5-(5-morpholinobenzo[d]oxazol-2-y1)-2,7-naphthyridin-3-yl)cyclopropane-1-carboxamide], the Kd at TYK2 JH2 is ≤ 100 nM. Moreover, the IC50 in test [1] is ≤ 500 nM.

As to `CNc1ncc(-c2nc3cc(N4CCOCC4)ccc3o2)c2cc(NC(=O)[C@H]3C[C@H]3C)ncc12` [Example 423, (1S,2R)-2-methyl-N-(8-(methylamino)-5-(5-morpholinobenzo[d]oxazol-2-yl)-2,7-naphthyridin-3-yl)cyclopropane-1-carboxamide], at TYK2 JH2, the Kd is ≤ 100 nM. Besides, the IC50 in test [1] was ≤ 500 nM.

Turning to `CNc1ncc(-c2nc3cc(N4CCOCC4)ccc3o2)c2cc(NC(=O)[C@@H]3C[C@@H]3F)ncc12` [Example 424, (1S,2S)-2-fluoro-N-(8-(methylamino)-5-(5-morpholinobenzo[d]oxazol-2-yl)-2,7-naphthyridin-3-yl)cyclopropane-1-carboxamide], at TYK2 JH2, the Kd was ≤ 100 nM. The IC50 in test [1] was ≤ 500 nM.

For the compound `CNc1ncc(-c2nc3cc(N4CCOCC4)ccc3o2)c2cc(NC(=O)C3(F)CC3)ncc12` [Example 425, 1-fluoro-N-(8-(methylamino)-5-(5-morpholinobenzo[d]oxazol-2-yl)-2,7-naphthyridin-3-yl)cyclopropane-1-carboxamide], the Kd on TYK2 JH2 is ≤ 100 nM. In addition, the IC50 in test [1] was ≤ 500 nM.

Consider `CNc1ncc(-c2nc3cc(N4CCOCC4)ccc3o2)c2cc(Nc3cc(C)n(C)n3)ncc12` [Example 426, N6-(1,5-dimethyl-1H-pyrazol-3-yl)-N^1-methyl-4-(5-morpholinobenzo[d]oxazol-2-yl)-2,7-naphthyridine-1,6-diamine], for which, at TYK2 JH2, the Kd is ≤ 100 nM. The IC50 in test [1] is ≤ 500 nM.

Take `CNc1ncc(-c2nc3ccccc3o2)c2cc(Nc3ccccn3)ncc12` [Example 427, 4-(benzo[d]oxazol-2-yl)-N^1-methyl-N^6-(pyridin-2-yl)-2,7-naphthyridine-1,6-diamine]: the Kd at TYK2 JH2 is ≤ 100 nM. In addition, the IC50 in test [1] is ≤ 500 nM.

In the case of `CCC(=O)Nc1cc2c(-c3nc4ccccc4o3)cnc(NC)c2cn1` [Example 428, N-(5-(benzo[d]oxazol-2-yl)-8-(methylamino)-2,7-naphthyridin-3-yl)propionamide], the Kd on TYK2 JH2 was ≤ 100 nM. Further, the IC50 in test [1] is ≤ 500 nM.

Consider `CNc1ncc(-c2nc3ccccc3o2)c2cc(NC(=O)C(C)C)ncc12` [Example 429, N-(5-(benzo[d]oxazol-2-yl)-8-(methylamino)-2,7-naphthyridin-3-yl)isobutyramide], for which, on TYK2 JH2, the Kd was ≤ 100 nM. The IC50 in test [1] is > 500 nM.

With `[2H]C([2H])([2H])Nc1ncc(-c2nc3ccccc3o2)c2cc(NC(C)=O)ncc12` [Example 431, N-(5-(benzo[d]oxazol-2-yl)-8-((methyl-d3)amino)-2,7-naphthyridin-3-yl)acetamide], the Kd on TYK2 JH2 was ≤ 100 nM. For the same compound, the IC50 in test [1] is ≤ 500 nM.

For `[2H]C([2H])([2H])Nc1ncc(-c2nc3ccccc3o2)c2cc(NC(=O)C([2H])([2H])[2H])ncc12` [Example 432, N-(5-(benzo[d]oxazol-2-yl)-8-((methyl-d3)amino)-2,7-naphthyridin-3-yl)acetamide-2,2,2-d3], the Kd on TYK2 JH2 was ≤ 100 nM. Besides, the IC50 in test [1] was ≤ 500 nM.

As for `[2H]C([2H])([2H])Nc1ncc(-c2nc3cc(OC)ccc3o2)c2cc(NC(=O)[C@@H]3C[C@@H]3F)ncc12` [Example 435, (1S,2S)-2-fluoro-N-(5-(5-methoxybenzo[d]oxazol-2-yl)-8-((methyl-d3)amino)-2,7-naphthyridin-3-yl)cyclopropane-1-carboxamide], at TYK2 JH2, the Kd was ≤ 100 nM. Also, the IC50 in test [1] was ≤ 500 nM.

In the case of `[2H]C([2H])([2H])Nc1ncc(-c2nc3cc(OC([2H])([2H])[2H])ccc3o2)c2cc(NC(=O)[C@H]3C[C@H]3C)ncc12` [Example 439, (1S,2R)—N-(5-(5-(methoxy-d3)benzo[d]oxazol-2-yl)-8-((methyl-d3)amino)-2,7-naphthyridin-3-yl)-2-methylcyclopropane-1-carboxamide], on TYK2 JH2, the Kd was ≤ 100 nM. Further, the IC50 in test [1] was ≤ 500 nM.

On to `[2H]C([2H])([2H])Nc1ncc(-c2nc3cc(N4CCO[C@@H](C)C4)ccc3o2)c2cc(NC(=O)[C@H]3C[C@H]3C)ncc12` [Example 440, (1S,2R)-2-methyl-N-(8-((methyl-d3)amino)-5-(5-((S)-2-methylmorpholino)benzo[d]oxazol-2-yl)-2,7-naphthyridin-3-yl)cyclopropane-1-carboxamide], for which, on TYK2 JH2, the Kd was ≤ 100 nM. For the same compound, the IC50 in test [1] was ≤ 500 nM.

Take `[2H]C([2H])([2H])Nc1ncc(-c2nc3cc(N4CCO[C@H](C)C4)ccc3o2)c2cc(NC(=O)[C@H]3C[C@H]3C)ncc12` [Example 441, (1S,2R)-2-methyl-N-(8-((methyl-d3)amino)-5-(5-((R)-2-methylmorpholino)benzo[d]oxazol-2-yl)-2,7-naphthyridin-3-yl)cyclopropane-1-carboxamide]: on TYK2 JH2, the Kd is ≤ 100 nM. Moreover, the IC50 in test [1] is ≤ 500 nM.

For the compound `[2H]C([2H])([2H])Nc1ncc(-c2nc3cc(N4CCOCC4)ccc3o2)c2cc(NC(=O)C3(F)CC3)ncc12` [Example 442, 1-fluoro-N-(8-((methyl-d3)amino)-5-(5-morpholinobenzo[d]oxazol-2-yl)-2,7-naphthyridin-3-yl)cyclopropane-1-carboxamide], the Kd on TYK2 JH2 was ≤ 100 nM. Moreover, the IC50 in test [1] is ≤ 500 nM.

For the compound `[2H]C([2H])([2H])Nc1ncc(-c2nc3cc(N4CCOCC4)ccc3o2)c2cc(NC(=O)[C@H]3C[C@H]3C)ncc12` [Example 443, (1S,2R)-2-methyl-N-(8-((methyl-d3)amino)-5-(5-morpholinobenzo[d]oxazol-2-yl)-2,7-naphthyridin-3-yl)cyclopropane-1-carboxamide], the Kd at TYK2 JH2 is ≤ 100 nM. Also, the IC50 in test [1] was ≤ 500 nM.

Take `CNc1ncc(-c2nc3c(NC(C)=O)cccc3o2)c2cc(NC(=O)C3CC3)ncc12` [Example 444, N-(5-(4-acetamidobenzo[d]oxazol-2-yl)-8-(methylamino)-2,7-naphthyridin-3-yl)cyclopropanecarboxamide]: the Kd on TYK2 JH2 was ≤ 100 nM. Further, the IC50 in test [1] was ≤ 500 nM.

Turning to `CNc1ncc(-c2nc3cc(-c4nc[nH]n4)ccc3o2)c2cc(NC(=O)C3CC3)ncc12` [Example 445, N-(5-(5-(1H-1,2,4-triazol-3-yl)benzo[d]oxazol-2-yl)-8-(methylamino)-2,7-naphthyridin-3-yl)cyclopropanecarboxamide], at TYK2 JH2, the Kd was ≤ 100 nM. Also, in test [1], the IC50 was ≤ 500 nM.
